Source: paper PMC12261233, “Photoactivatable Cyclometalated Ir(III) Compound Penetrates the Blood-Brain Barrier in 3D Spheroidal and Advanced 3D Organoid Models of Inherently Resistant and Aggressive Brain Tumors” (ACS Pharmacology & Translational Science, 2025)

Assays:
hCMEC/D3 cells = test system: hCMEC/D3 cells; set-up: method as in number not printed (footnote c: Data taken from the ref); conditions: comparison value; ref number not printed (footnote c: Data taken from the ref); cited from earlier work
U87MG spheroids [1] = test: Detection of ROS (CellRox) and PPI in spheroids by confocal microscopy; format: cell-based, human
Method: We evaluated ROS induction in glioblastoma U87MG spheroids treated with Ir4 at its IC50 concentration for 3 h, followed by blue laser light irradiation (405 nm, 60 s, 1 mW). ROS levels were quantified using the CellRox probe, with PPI employed to assess immediate cell death. Z-stack imaging was performed before irradiation and at 1, 15, and 30 min postirradiation (Figure , panel I). Mean fluorescence intensity in the z-stack projections quantified ROS generation (Figure , panel II).
The spheroids were exposed to Ir4 (IC50, U87MG 3D, 72 h) for 3 h or maintained under drug-free conditions (control). Subsequently, the samples were stained with CellRox reagent (5 μM) and PPI (8 μg mL^–1) before being irradiated for 60 s with blue laser light (405 nm, 1 mW). Imaging of the samples was conducted before or immediately after the irradiation (1 min postirradiation) and at defined time intervals (15 and 30 min). The fluorescence scanning was performed sequentially in z-stack mode (10 z-stacks). Postirradiation imaging was conducted for a total of 90 min, with only the data collected up to 30 min being presented and quantified. The experiments were independently replicated in triplicate.

[2] = test system: cerebral organoid with U87MG spheroid implant; test: Distribution of compound in organoid-spheroid implant model (confocal); format: cell-based, human; conditions: 5 μM
Method: An implant fusion model was established to monitor the distribution of Ir4 within the tumor, represented by the implanted tumorspheres generated from U87MG, and healthy tissue, represented by the hiPSC-derived cerebral organoid. Before the implantation procedure, spheroids derived from U87MG glioblastoma were cultured for 72 h under 3D forming conditions using ULA plates (96-well U-shaped plate, Corning) in DMEM-F12 supplemented with 2% B27, epidermal growth factor (EGF) at 20 ng mL^–1, fibroblast growth factor 2 (FGF2) at 10 ng mL^–1, and BSA (0.15%). Cerebral organoids were generated through a four-step directed differentiation process from human induced pluripotent stem cells (hiPSCs, Gibco). The hiPSCs were cultured on Geltrex matrix (hESC-Qualified, Reduced Growth Factor Basement Membrane Matrix; Gibco) in StemFlex basal medium (DMEM/F12, Ham, 1:1) fully supplemented with StemFlex supplement (Gibco). […] After the initial differentiation phase, early organoids were monitored for the development of optically clear neuroectoderm (characterized by an optically bright, translucent surface) and the formation of large buds of translucent ectoderm that were not radially organized. […] The samples were then transferred to confocal Petri dishes containing drug-free cerebral maturation medium and analyzed using a confocal microscope (Leica CM SP5, Leica, Germany).

U87MG spheroids [3] = test: Morphology and diameter of spheroids after treatment and irradiation (phase contrast); format: cell-based, human; conditions: 90 min treatment, 30 min blue light, 70 h drug-free incubation
Method: We further investigated the effects of treatment and irradiation on tumor spheroids by analyzing the morphology and diameter of spheroids from the U87MG cell line. Morphogenic parameters were assessed using phase contrast microscopy at 24-h intervals during the preformation phase and post-treatment, culminating at 144 h. Initial mean diameters of the spheroids were 280 ± 11 μm, increasing to 550 μm after 70 h of drug-free incubation. U87MG spheroids proliferated rapidly. Rapidly growing tumor cells are generally more sensitive to treatment, whereas quiescent tumor cells are moderately sensitive to metal-based compounds.
The spheroid models underwent treatment with varying concentrations of compounds, focusing on equitoxic concentrations during blue light exposure. The analysis included both irradiated and nonirradiated samples to assess nonspecific toxicity under dark conditions. […]
Figure S30. […] Phase contrast microphotographs were obtained for spheroids generated from U87MG cells (panel A), and the respective mean diameters were analyzed and shown in panel B for U87MG spheroids. […] Mean diameters for dark-incubated samples were analyzed at the same concentrations as those for irradiated samples to assess the impact of irradiation. […]

| Compound | P app (hCMEC/D3 cells) | PPI fluorescence intensity postirradiation (U87MG spheroids [1]; 15 and 30 min postirradiation) | ROS level compared to preirradiation level, 1 min (U87MG spheroids [1]; IC50 3 h, 405 nm 60 s 1 mW, 1 min postirradiation) [fold] | ROS level compared to preirradiation level, 15 min (U87MG spheroids [1]; IC50 3 h, 405 nm 60 s 1 mW, 15 min postirradiation) [fold] | ROS level compared to preirradiation level, 30 min (U87MG spheroids [1]; IC50 3 h, 405 nm 60 s 1 mW, 30 min postirradiation) [fold] | ROS level versus untreated controls before laser irradiation (U87MG spheroids [1]; IC50 (U87MG 3D, 72 h) for 3 h, CellRox, dark) [times] | distribution in organoid-spheroid fusion system [2] | effect on spheroid diameter / growth (U87MG spheroids [3]) |
| --- | --- | --- | --- | --- | --- | --- | --- | --- |
| Cn1nnc2c(C(N)=O)ncn2c1=O [Temozolomide, reference compound] | 0.36 × 10^–4 cm·s^–1 | – | – | – | – | – | – | – |
| CCCCn1c2[n+](c3cc(C(=O)OC)ccc31)[Ir-3]13([Cl])([c]4ccccc4-2)[n+]2ccccc2-c2cc(-c4ccc(C)cc4)cc([n+]21)-c1cccc[n+]13.F[P-](F)(F)(F)(F)F [Ir4] | – | slight but significant increase | 1.8 | 2.3 | 2.5 | 1.8 | predominantly accumulated in malignant tissues | spheroid diameters decreased below their initial size |
